In assay [1] the test system is Wnt ligand-induced signaling. The assay is described as follows: Wnt-responsive Super-TOpFlash (STF) luciferase reporter gene assay in HEK293 cells. The assay is classed as cell-based. As to conditions: 20% Wnt3A conditioned medium, read-out: HEK293STF IC50. How it is done: Cellular Reporter Gene Assay to Determine Compound Inhibition of Wnt Signaling Activity
Compound activity in inhibiting Wnt ligand-induced signaling was measured using a Wnt-responsive Super-TOpFlash (STF) luciferase reporter gene assay in HEK293 cells. On day 1 of the assay, cells were plated at a density of 8000 cells per well of 384-well plate in 25 μl medium containing 5% fetal bovine serum (FBS). On the second day, […] condition medium (CM) produced from mouse L cells was added to the cells to induce Wnt signaling, followed by addition of 5 μL of compounds each well in 10-point serial dilution. On the third day, the luciferase activity was measured by the Bright-Glo™ Luciferase Assay System following manufacture's protocol (Promega, E2620). The Inhibition was calculated as: (Maximum Wnt-induced signaling−Sample)/(Maximum Wnt-induced signaling−Background)*100. “Maximum Wnt-induced signaling” is the STF signal level induced by 20% Wnt3A CM without compound; and “Background” is the STF signal level without the addition of Wnt3A CM or compound.

In assay [2] the target is human tankyrase 1 PARP catalytic domain, TNKS1P (Homo sapiens (Human), UniProt O95271). The assay is described as follows: TNKS1 autoparsylation enzymatic assay (LC/MS detection of nicotinamide). As to conditions: 20 nM enzyme, 250 μM β-NAD+, 60 min, read-out: TNKS1 AP IC50. The class given is biochemical. The source says: (§1) The human tankyrase 1 PARP catalytic domain, TNKS1P, was cloned into a pDONR221 vector using the Invitrogen Gateway Technology. This entry clone was then subcloned into the destination vector pDEST20 to obtain the N-terminal Glutathione S-transferase (GST)-tagged fusion protein. GST-TNKS1P was then expressed in Sf21 cells using the Invitrogen baculovirus expression system (Invitrogen-Bac-to-Bac® Baculovirus Expression System, Version D). The protein was purified by a GSTrap column (GE Healthcare). The N-terminal GST-tagged tankyrase 2 protein PARP domain, TNKS2P, was cloned, expressed, and purified in a similar manner. Human PARP1 (Cat. No. 4668-100-01) and activated DNA (Cat. No. 4671-096-06) were purchased from Trevigen, Inc. PARP2 (Cat. No. ALX-201-064-C020) was purchased from Alexis Biochemical.
The % Inhibition was calculated as: (Control−Sample)/(Control−Background)*100. “Control” is the average value of 8 wells without compound; and “Background” is the average of 8 wells mixed with 5× quenching solution measured prior to initiation of the reaction.

The target of assay [3] is TNKS2 (GST-tagged tankyrase 2 PARP domain, TNKS2P) (Homo sapiens (Human), UniProt Q9H2K2). The assay is described as follows: TNKS2 autoparsylation enzymatic assay (LC/MS detection of nicotinamide). The assay is classed as biochemical. As to conditions: 20 nM enzyme, 250 μM β-NAD+, 60 min, read-out: TNKS2 AP IC50.
Description: as §1, with “manner.” for “manner. Human PARP1 (Cat. No. 4668-100-01) and activated DNA (Cat. No. 4671-096-06) were purchased from Trevigen, Inc. PARP2 (Cat. No. ALX-201-064-C020) was purchased from Alexis Biochemical.”
The % Inhibition was calculated as: (Control−Sample)/(Control−Background)*100.

Like-named read-outs stand apart in the source and are kept apart here.

TNKS2 (GST-tagged tankyrase 2 PARP domain, TNKS2P), sequence (Q9H2K2 959-1164): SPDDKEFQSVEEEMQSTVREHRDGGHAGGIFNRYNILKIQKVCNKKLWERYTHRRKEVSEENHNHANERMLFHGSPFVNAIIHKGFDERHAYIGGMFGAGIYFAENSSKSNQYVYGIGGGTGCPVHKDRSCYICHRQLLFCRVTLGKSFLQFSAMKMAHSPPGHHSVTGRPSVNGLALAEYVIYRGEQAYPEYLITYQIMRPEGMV
human tankyrase 1 PARP catalytic domain, TNKS1P, sequence (O95271 1112-1317): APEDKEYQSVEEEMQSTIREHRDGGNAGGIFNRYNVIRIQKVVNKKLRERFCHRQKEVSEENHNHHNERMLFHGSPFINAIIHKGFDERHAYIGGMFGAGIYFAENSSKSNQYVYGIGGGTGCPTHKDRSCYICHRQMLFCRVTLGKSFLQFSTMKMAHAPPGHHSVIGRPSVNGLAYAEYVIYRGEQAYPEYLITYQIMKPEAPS

For the molecule `O=C(CCc1c[nH]c2ccccc12)N(Cc1nc2c(c(=O)[nH]1)COCC2)Cc1cccs1` [Example 3, 3-(1H-Indol-3-yl)-N-(4-oxo-3,5,7,8-tetrahydro-4H-pyrano[4,3-d]pyrimidin-2-ylmethyl)-N-thiophen-2-ylmethyl-propionamide], in assay [1] (Homo sapiens), the half-inhibitory concentration (IC50) amounted to 9.31 ± 3.9 µM.
As for `O=C(CCc1cccc(F)c1)N(Cc1nc2c(c(=O)[nH]1)COCC2)Cc1cccs1` [Example 5, 3-(3-Fluorophenyl)-N-((4-oxo-4,5,7,8-tetrahydro-3H-pyrano[4,3-d]pyrimidin-2-yl)methyl)-N-(thiophen-2-ylmethyl)propanamide], the IC50 in assay [2] amounted to 1.58 ± 0.014 µM.
Still for that read-out and setting: for `O=C(CCc1ccccc1O)N(Cc1nc2c(c(=O)[nH]1)COCC2)Cc1cccs1` [Example 6, 3-(2-Hydroxy-phenyl)-N-(4-oxo 3,5,7,8-tetrahydro-4H-pyrano[4,3-d]pyrimidin-2-ylmethyl)-N-thiophen-2-ylmethyl-propionamide] the value was 5.19 ± 0.227 µM; for `O=C(CCc1ccc(O)cc1)N(Cc1nc2c(c(=O)[nH]1)COCC2)Cc1cccs1` [Example 8, 3-(4-Hydroxy-phenyl)-N-(4-oxo-3,5,7,8-tetrahydro-4H-pyrano[4,3-d]pyrimidin-2-ylmethyl)-N-thiophen-2-ylmethyl-propionamide], 1.42 ± 0.04 µM.
For `O=c1[nH]c(CN(Cc2cccs2)S(=O)(=O)Cc2ccccc2)nc2c1COCC2` [Example 9, N-((4-Oxo-4,5,7,8-tetrahydro-3H-pyrano[4,3-d]pyrimidin-2-yl)methyl)-1-phenyl-N-(thiophen-2-ylmethyl)methanesulfonamide], the half-maximal inhibitory concentration (IC50) in assay [1] (Homo sapiens) amounted to 0.9 ± 0.23 µM.
The same measure, in the same setting: with `O=c1[nH]c(CN(Cc2cccs2)S(=O)(=O)CCc2ccccc2)nc2c1COCC2` [Example 10, 2-Phenyl-ethanesulfonic acid (4-oxo-3,5,7,8-tetrahydro-4H-pyrano[4,3-d]pyrimidin-2-ylmethyl)-thiophen-2-ylmethyl-amide] the figure was 2.43 ± 0.94 µM.
In the case of `O=C(CCc1ccncc1)N(Cc1nc2c(c(=O)[nH]1)COCC2)Cc1cccs1` [Example 11, N-((4-Oxo-4,5,7,8-tetrahydro-3H-pyrano[4,3-d]pyrimidin-2-yl)methyl)-3-(pyridin-4-yl)-N-(thiophen-2-ylmethyl)propanamide], the half-maximal inhibitory concentration (IC50) in assay [2] was 4.17 ± 0.26 µM.
As to `O=C(CCc1ccccc1)N(Cc1nc2c(c(=O)[nH]1)COCC2)CC1CCCC1` [Example 13, N-Cyclopentylmethyl-N-(4-oxo-3,5,7,8-tetrahydro-4H-pyrano[4,3-d]pyrimidin-2-ylmethyl)-3-phenyl-propionamide], the IC50 in assay [2] turned out to be 4.78 ± 0.36 µM; in assay [1] (Homo sapiens) it was 4.09 ± 1.29 µM; in assay [3] it was 0.995 ± 0.094 µM.
For `O=C(CCc1ccccc1)N(Cc1nc2c(c(=O)[nH]1)COCC2)Cc1ccccc1F` [Example 14, N-(2-Fluorobenzyl)-N-((4-oxo-4,5,7,8-tetrahydro-3H-pyrano[4,3-d]pyrimidin-2-yl)methyl)-3-phenylpropanamide], in that order: 5.61 ± 0.24 µM, 4.09 ± 0.1 µM and 1.05 ± 0.05 µM.
Consider `CCN(Cc1nc2c(c(=O)[nH]1)COCC2)C(=O)CCc1ccccc1` [Example 15, N-Ethyl-N-((4-oxo-4,5,7,8-tetrahydro-3H-pyrano[4,3-d]pyrimidin-2-yl)methyl)-3-phenylpropanamide], for which, in assay [2], the IC50 was > 19 µM.
Take `CC(C)N(Cc1nc2c(c(=O)[nH]1)COCC2)C(=O)CCc1ccccc1` [Example 16, N-Isopropyl-N-((4-oxo-4,5,7,8-tetrahydro-3H-pyrano[4,3-d]pyrimidin-2-yl)methyl)-3-phenylpropanamide]: the IC50 in assay [2] is > 19 µM; in assay [1] (Homo sapiens) it was 34.9 µM; in assay [3], 5.39 ± 1.63 µM.
For `CC(C)(C)C(=O)CN(Cc1nc2c(c(=O)[nH]1)COCC2)C(=O)CCc1ccccc1` [Example 17, N-(3,3-Dimethyl-2-oxobutyl)-N-((4-oxo-4,5,7,8-tetrahydro-3H-pyrano[4,3-d]pyrimidin-2-yl)methyl)-3-phenylpropanamide], in that order: 17.1 ± 2 µM, 14.3 ± 1 µM and 2.99 ± 0.036 µM.
The matching figures for `O=C(CCc1ccccc1)N(Cc1nc2c(c(=O)[nH]1)COCC2)Cc1nccs1` [Example 19, N-((4-Oxo-4,5,7,8-tetrahydro-3H-pyrano[4,3-d]pyrimidin-2-yl)methyl)-3-phenyl-N-(thiazol-2-ylmethyl)propanamide]: 11.4 ± 0.4 µM, 8.56 ± 0.42 µM and 2.03 ± 0.04 µM.
`O=C(CCc1ccccc1)N(Cc1nc2c(c(=O)[nH]1)COCC2)Cc1ncco1` [Example 20, N-(Oxazol-2-ylmethyl)-N-((4-oxo-4,5,7,8-tetrahydro-3H-pyrano[4,3-d]pyrimidin-2-yl)methyl)-3-phenylpropanamide]: the IC50 was determined as 4.6 ± 0.2 µM in assay [2], 14.3 ± 4 µM in assay [1] (Homo sapiens) and 1.7 ± 0.03 µM in assay [3].
For the molecule `O=C(CCc1ccccc1)N(Cc1nc2c(c(=O)[nH]1)COCC2)Cc1ccc(Cl)s1` [Example 21, N-((5-Chlorothiophen-2-yl)methyl)-N-((4-oxo-4,5,7,8-tetrahydro-3H-pyrano[4,3-d]pyrimidin-2-yl)methyl)-3-phenylpropanamide], the IC50 in assay [2] worked out at 1.61 ± 0.11 µM; in assay [1] (Homo sapiens), 1.97 ± 0.56 µM; in assay [3], 0.318 ± 0.009 µM.
The matching figures for `O=C(CCc1ccccc1)N(Cc1nc2c(c(=O)[nH]1)COCC2)Cc1cncs1` [Example 22, N-((4-Oxo-4,5,7,8-tetrahydro-3H-pyrano[4,3-d]pyrimidin-2-yl)methyl)-3-phenyl-N-(thiazol-5-ylmethyl)propanamide]: 17.5 ± 1 µM, 18.2 ± 4.5 µM and 3.48 ± 0.71 µM.
The matching figures for `O=C(CCc1ccccc1)N(CCO)Cc1nc2c(c(=O)[nH]1)COCC2` [Example 23, N-(2-Hydroxy-ethyl)-N-(4-oxo-3,5,7,8-tetrahydro-4H-pyrano[4,3-d]pyrimidin-2-ylmethyl)-3-phenyl-propionamide]: 16.93 ± 0.02 µM, > 50 µM and 2.68 ± 0.077 µM.
For `C[C@@H](c1ccccc1)N(Cc1nc2c(c(=O)[nH]1)COCC2)S(=O)(=O)Cc1ccccc1` [Example 24, (S)—N-((4-Oxo-4,5,7,8-tetrahydro-3H-pyrano[4,3-c]pyrimidin-2-yl)methyl)-1-phenyl-N-(1-phenylethyl)methanesulfonamide], in that order: 18.1 ± 1.9 µM, 15.7 ± 0.8 µM and 3.12 ± 0.06 µM.
As to `C[C@H](c1ccccc1)N(Cc1nc2c(c(=O)[nH]1)COCC2)S(=O)(=O)Cc1ccccc1` [Example 25, (R)—N-((4-Oxo-4,5,7,8-tetrahydro-3H-pyrano[4,3-d]pyrimidin-2-yl)methyl)-1-phenyl-N-(1-phenylethyl)methanesulfonamide], the IC50 in assay [2] worked out at 9.08 ± 0.76 µM; in assay [1] (Homo sapiens), 23.2 ± 7.9 µM; in assay [3] it was 1.85 ± 0.06 µM.
The matching figures for `O=C(CCc1ccccc1F)N(Cc1ccc[nH]1)Cc1nc2c(c(=O)[nH]1)COCC2` [Example 26, N-((1H-Pyrrol-2-yl)methyl)-3-(2-fluorophenyl)-N-((4-oxo-4,5,7,8-tetrahydro-3H-pyrano[4,3-d]pyrimidin-2-yl)methyl)propanamide]: 1.17 ± 0.12 µM, 5 ± 0.72 µM and 0.235 ± 0.024 µM.
For the molecule “N-((4-Oxo-4,5,7,8-tetrahydro-3H-pyrano[4,3-d]pyrimidin-2-yl)methyl)-3-(pyridin-4-yl)-N-(thiophen-2-ylmethyl)propanamide [Example 12]”, the half-inhibitory concentration (IC50) stood at 14.6 ± 0.4 µM in assay [2] and 41 ± 1.6 µM in assay [1].

The values are drawn from patent US9227982B2 (NOVARTIS AG, priority 2011, dated 2016).
